≈ marks a conversion by molar mass, not a printed value.
Assay: physchem
Settings: octan-1-ol/water, pH 7.4

Row | Structure (SMILES) | logD
1 | CC(C)CC(N(C)C)C1(c2ccc(Cl)cc2)CCC1 (configuration not stated) [SIBUTRAMINE] | 3.6
2 | Cc1ccnc(NCc2ccc(Cl)cc2)c1 | 3.6
3 | CCC1(c2ccc(N)cc2)CCC(=O)NC1=O (configuration not stated) [AMINOGLUTETHIMIDE] | 0.6
4 | Cn1nnc(-c2ccc(-c3ccc(N4C[C@H](COc5ccon5)OC4=O)cc3F)cn2)n1 | 1.24
5 | COc1cc2c(c(OC)c1OC)-c1ccc(OC)c(=O)cc1[C@@H](NC(C)=O)CC2 [COLCHICINE] | 0.82
6 | Oc1ccc2c3c1O[C@H]1c4[nH]c5ccccc5c4C[C@@]4(O)[C@@H](C2)N(CC2CC2)CC[C@]314 [NALTRINDOLE] | 2.7
7 | Oc1ccc2c3c1O[C@H]1c4[nH]c5c(c4C[C@@]4(O)[C@@H](C2)N(CC2CC2)CC[C@]314)C[C@@]1(O)[C@H]2Cc3ccc(O)c4c3[C@@]1(CCN2CC1CC1)[C@H]5O4 [NORBINALTORPHIMINE] | 1.41
8 | NC(Cc1ccc(N(CCCl)CCCl)cc1)C(=O)O (configuration not stated) [SARCOLYSIN] | 0.39

Same assay, conditions: octan-1-ol/water, pH 7.4, LogD7.4

Row | Structure (SMILES) | logD
9 | C[C@@](O)(C(=O)Nc1ccc(C(=O)N2CCCCC2)cc1Cl)C(F)(F)F | 2.62
10 | Nc1nc(-c2ccccc2)nc2c1nc(O)n2Cc1ccccc1 | 4.16
11 | CCCC(=O)NCc1cncc(-c2ccc(F)cc2OC)c1 | 2.9
12 | CCn1c(=O)c2c(-c3cncn3C)n(Cc3ccnc4ccc(Cl)cc34)nc2n(CC2CC2)c1=O | 2.87
13 | CN(C)c1ncnc2nc[nH]c12 [DIMETHYLADENINE] | 0.95
14 | CC(C)C(NC(=O)Cn1c(-c2cccc(C(=O)O)c2)ccc(NC(=O)OCc2ccccc2)c1=O)C(=O)C(F)(F)F (configuration not stated) | 1.2
15 | Clc1cccc(-n2nnnc2NCc2ccccc2Oc2ccccn2)c1Cl | 3.62
16 | CCCS(=O)(=O)c1ccc(C(CNS(=O)(=O)c2ccc(C(F)(F)F)cc2)N2CCCCCC2)cc1 (configuration not stated) | 3.32
17 | O=c1cc(-c2ccccc2)oc2ccc(O)cc12 [6-HYDROXYFLAVONE] | 3.6
18 | Oc1nc2ccccc2nc1NCc1ccccc1 | 3.3
19 | O=C1CCOc2nc(OCc3ccccc3)ccc21 | 3.1
20 | CC(C)CCCC(C)/N=c1\ccn(Cc2ccccc2)c2cc(Cl)ccc12 (configuration not stated) | 1.58
21 | CCCCc1ncc(/C=C(\Cc2cccs2)C(=O)O)n1Cc1ccc(C(=O)O)cc1 [EPROSARTAN] | -0.9
22 | CCOc1ccccc1-c1ccc(-c2nc3ccc(F)cc3c(N[C@H](C)C(=O)O)c2C#N)cc1 | 2.5
23 | Cc1occc(=O)c1OCc1ccccc1 | 1.87
24 | c1ccc(CN(Cc2ccccc2)c2nn[nH]n2)cc1 | 1.37
25 | CC(C)C[C@@H](CO)NS(=O)(=O)c1ccc(Cl)s1 | 2.8
26 | CCCSc1ncccc1C(=O)N1CCCC1c1ccncc1 (configuration not stated) | 1.95
27 | NC1(C(=O)NC(CCCN2CCOCC2)c2ccc(Cl)cc2)CCN(c2ncnc3[nH]ccc23)CC1 (configuration not stated) | 2.7

Row | Structure (SMILES) | logD
28 | Cc1cc(Nc2ncc(F)c(-c3cnc(C)n3C(C)C)n2)ccc1C(=O)N(C)C | 2.86
29 | COc1cc(C(=O)c2cc(Cl)ccc2N)cc(OC)c1OC | 3.38
30 | C[C@@H]1CN(c2noc(C(F)(F)F)n2)CCN1c1ncc(OCc2ccncc2C#N)cn1 | 3.95
31 | CC(C)Cn1c(=O)n(C)c(=O)c2c(C(=O)N3C[C@H](O)CO3)c(Cc3ccccc3C(F)(F)F)sc21 | 3.15
32 | CC(C)C(NC(=O)Cn1c(-c2ccccc2)ccc(NC(=O)NCc2ccc[n+]([O-])c2)c1=O)C(=O)C(F)(F)F (configuration not stated) | 1.48
33 | CCN(CC)CCNC(=O)c1cc(Br)c(N)cc1OC [BROMOPRIDE] | 0.54
34 | Nc1c2c(nc3ccc(Br)cc13)N(c1ccccc1)CC2 | 3.12
35 | Cn1cnc([N+](=O)[O-])c1Sc1ncnc2nc[nH]c12 [AZATHIOPRINE] | 0.19
36 | CN(C)CCCC(NC(=O)C1(N)CCN(c2ncnc3[nH]ccc23)CC1)c1ccc(Cl)cc1 (configuration not stated) | 1.4
37 | CN[C@@H](C)C(=O)N[C@H](C(=O)N[C@H]1CCCN(CCc2cccc(F)c2)C1)C1CCCCC1 | 2.64
38 | O=C1c2ccc(O)cc2C(=O)N1c1ccc(O)cc1F | 2.1
39 | Cn1cc(C#N)cc1-c1c2c(=O)n(CCO)c(=O)n(CC3CC3)c2nn1Cc1ccnc2ccc(Cl)cc12 | 3
40 | C[C@H]1O[C@@H](n2cnc3c(N)nc(OC4CC5CC5C4)nc32)[C@H](O)[C@@H]1O (some centres not stated) | 1.66
41 | Cn1c(N)nc(CCc2cccc(-c3cccnc3)c2)cc1=O | 2.5
42 | C[S+]([O-])CCN1C(=O)C(NC(=O)c2cc3cc(Cl)sc3[nH]2)Cc2ccccc21 (configuration not stated) | 3.17
43 | CN(C)CC1CCn2c(c(C3=C(c4cn(C)c5ccccc45)C(=O)NC3=O)c3ccccc32)C1 (configuration not stated) | 2.88
44 | COc1cc(OC)cc(-c2cc3cnc(N)nc3nc2N)c1 | 2.14
45 | CSc1nc(C(N)=O)c(N)s1 | 1.21
46 | Cc1ccc(NC(=O)CCC2CCCCC2)cc1NC(=O)c1ccc(O)cc1 | 4.13

Row | Structure (SMILES) | logD
47 | Nc1ccn([C@@H]2O[C@H](CO)[C@@H](O)C2(F)F)c(=O)n1 [GEMCITABINE] | -1.5
48 | Cc1cc(N)c2cc(NC(=O)CCCCC(=O)Nc3ccc4nc(C)cc(N)c4c3)ccc2n1 | 0.53
49 | CSc1ncccc1C(=O)NCC1CCCCC1 | 2.93
50 | CN(C)CC(O)COc1ccc(Nc2cc(N(CC#N)c3cc(Cl)ccc3Cl)ncn2)cc1 (configuration not stated) | 2.1
51 | Cc1cccc(C(=O)N2CCC(C(=O)c3ccc(F)cc3)CC2)c1 | 3.4
52 | C1=C(c2cc3ccccc3o2)C2CCN1CC2 | 2.59
53 | COCCNCc1cncc(-c2ccc(F)cc2OC)n1 | 1.61
54 | Cc1cn(C2CCCN(Cc3cccc(Oc4ccccc4)c3)C2)c(=O)[nH]c1=O (configuration not stated) | 3.04
55 | CC(C)C(NC(=O)Cn1c(-c2cccnc2)ccc(NC(=O)OCc2ccccc2)c1=O)C(=O)C(F)(F)F (configuration not stated) | 3.05
56 | CCC(c1nc2snc(C)c2c(=O)n1Cc1ccccc1)N(CCCN)C(=O)c1ccc(C)cc1 (configuration not stated) | 1.61
57 | Cc1oc(S(C)(=O)=O)cc1-c1c2c(=O)n(C)c(=O)n(CC3CC3)c2nn1Cc1ccnc2ccc(Cl)cc12 | 3.2
58 | CS(=O)(=O)c1ccc(-c2cc(C(=O)N[C@H]3CCCNC3)c(NC(N)=O)s2)cc1 | 0.68
59 | COc1ccc(/C=C2/CCc3ccccc3C2=O)cc1CN1CCOCC1 | 3.8
60 | Cc1cn([C@H]2CCCN(Cc3ccc(C(=O)O)c(Oc4cccc(F)c4)c3)C2)c(=O)[nH]c1=O | -1.03
61 | Clc1ccc(C2(c3ccc(-c4cn[nH]c4)cc3)CCNCC2)cc1 | 1.51
62 | Cn1c(-c2ccncc2)cc2onc(-c3ccccc3)c2c1=O | 2.61
63 | COC(=O)Nc1cnc(-c2ccc(F)cc2)n(CC(=O)NC(C(=O)C(F)(F)F)C(C)C)c1=O (configuration not stated) | 1.82
64 | CCc1ccccc1-c1ccc(-c2nc3ccncc3c(O)c2C#N)cc1 | 3.5
65 | Fc1ccc2cn[nH]c2c1 | 2.3

Assay: physchem
Settings: pH 7.4 buffer

Row | Structure (SMILES) | solubility thermodynamic
66 | COC(=O)N[C@H](C(=O)N1CCC[C@H]1c1nc(-c2ccc(-c3ccc(-c4c[nH]c([C@@H]5CCCN5C(=O)[C@@H](NC(=O)OC)C(C)C)n4)cc3)cc2)c[nH]1)C(C)C | 10.2 µM (≈ 7.54 µg/mL)
67 | CCc1cc(NC(=O)Cc2ccc(Oc3ccnc4cc(OC)ccc34)cc2OC)n[nH]1 | 8.5 µM (≈ 3.68 µg/mL)
68 | CNC(=O)c1ccc(CC(=O)N(C)C2CCN(Cc3ccc(C(F)(F)F)cc3)CC2)cc1 | 107 µM (≈ 48 µg/mL)
69 | COc1cc2ncnc(Nc3cc(NC(=O)c4ccccc4)ccc3Cl)c2cc1OC | 10 µM (≈ 4.35 µg/mL)
70 | CCn1cc(NC(=O)Cc2ccc(Oc3ncnc4cc(OC)c(OC)cc34)cc2)cn1 | 24 µM (≈ 10.4 µg/mL)
71 | CS(=O)(=O)C1(c2cc(N3CCOCC3)nc(-c3cccc4[nH]ccc34)n2)CCOCC1 | 1.8 µM (≈ 0.797 µg/mL)
72 | CS(=O)(=O)Cc1cc(N2CC3CCC(C2)O3)nc(-c2ccc3[nH]ccc3c2)n1 | 1.5 µM (≈ 0.598 µg/mL)

From ChEMBL document CHEMBL3301361, “Experimental in vitro DMPK and physicochemical data on a set of publicly disclosed compounds”
